Key:
[1] = tested on: Peripheral Blood Mononuclear Cells (PBMC); assay: MitoSOX mitochondrial ROS assay (flow cytometry) in PBMCs of treated mice; format: in vivo, mouse; conditions: R6/2 mice, 0.5 mg/kg / 5 mg/kg i.p. QD, PBMCs collected at 13 weeks of age
Experimental: Euthanasia & Sample Collection—At 13 weeks of age, 9 mice per group were euthanized by deep anesthesia with sodium pentobarbital (180 mg/kg). The remaining mice were euthanized and any samples were not collected, except the tail and ear samples. A terminal blood sample (as much as possible) was collected by cardiac puncture into a syringe. The whole blood was placed in Li-Hep tube at RT and used immediately for preparation of PBMCs. The whole brain was collected and fresh frozen in liquid nitrogen and stored at −80° C. Blood was collected also from extra animals as staining controls for the flow cytometry assays (n=3 extra animals per day). Tail and ear samples were collected for possible post-study re-genotype analysis. […] Right before measurement 1 μL of propidium iodide was added and the cell number and viability was determined by MACSquant Analyzer 10 flow cytometer. […] The cells were analyzed immediately after the staining using the MACSQuant Analyzer 10 (Miltenyi Biotec) and Cytation 3 (Cell titerglow). […] Oxidation of MitoSOX™ Red reagent by superoxide produces red fluorescence and can be used to reliably the relative differences in mitochondrial ROS formation in cells. […] Concentrations exceeding 5 μM can produce cytotoxic effects, including altered mitochondrial morphology and redistribution of fluorescence to nuclei and the cytosol. • 2. […]

R6/2 mice = assay: Open field test in R6/2 mice; format: in vivo, mouse; conditions: 12 weeks of age
Experimental: Study Summary—A total of 46 male R6/2 mice and 15 male wild-type littermate control mice (WT) were used in the study. The mice were genotyped and the R6/2 mice were divided into different treatment groups based on their pre-treatment body weight. The treatment with Compound (Ia) (0.5 or 5 mg/kg; 10 ml/kg, intraperitoneally (i.p.), QD) or Vehicle (10 ml/kg, i.p., QD) was started at 4 weeks of age. Body weights were measured before the treatment onset and continued twice a week until the end of the study. Fine motor kinematic analysis and rotarod test were performed at 10 weeks of age and the open field activity and clasping behavior were measured at 12 weeks of age for all mice. At 8 and 12 weeks of age the glucose uptake was measured by ^18F-FDG PET and the striatal metabolites were measured using MR spectroscopy for 9-10 mice per group. […] The blood samples were used to prepare peripheral blood mononuclear cells (PBMCs) on which the flow cytometry/luminescence analysis was performed for following assays: mitochondrial reactive oxygen species (ROS) (MitoSox), and ATP levels (Cell TiterGlow). […]
Open Field Test—At 12 weeks of age all mice were subjected to open field test. […] Mice were placed in the center of the chamber and their behavior was recorded for 30 min in 5-min bins. […]

## Cc1cc(O)cc(C)c1C[C@H](NC(=O)[C@H](N)CCCNC(=N)N)C(=O)N[C@@H](CCCCN)c1nc(Cc2ccccc2)no1.Cl.Cl [Compound (Ia), (R)-2-amino-N—((S)-1-(((S)-5-amino-1-(3-benzyl-1,2,4-oxadiazol-5-yl)pentyl)amino)-3-(4-hydroxy-2,6-dimethylphenyl)-1-oxopropan-2-yl)-5-guanidinopentanamide]
[1]
  mitochondrial ROS formation (MitoSOX) in PBMCs, R6/2+Vehicle vs treated R6/2: no significant differences
R6/2 mice; 5 mg/kg i.p. QD, p<0.05, One-way ANOVA
  total distance traveled in the open field compared to vehicle treated R6/2 mice: traveled longer total distance
R6/2 mice; 0.5 or 5 mg/kg i.p. QD, p>0.05, One-way ANOVA
  total rearing frequency in the open field, between R6/2 groups: no significant differences
